# Experimental data from patent US6737383B1, “Herbicidal oxadiazolidines” (priority 1999, dated 2004).
# Key:
# soybean = experiment: Test B pre/postemergence soybean; type: in vivo, Glycine max
# In short: (§1)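 Herbicidal effect was estimated by eye on a ten-point control scale after plants spent twelve to sixteen days in a greenhouse following soil or foliar treatment. Foliar sprays targeted plants at one to four leaves; all doses were formulated in a non-phytotoxic solvent with surfactant.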
# wild oat = experiment: Test B pre/postemergence wild oat; type: in vivo, Avena fatua
# In short: as §1
# velvetleaf = experiment: Test B pre/postemergence velvetleaf; type: in vivo, Abutilon theophrasti
# In short: as §1
# blackgrass = experiment: Test B pre/postemergence blackgrass; type: in vivo, Alopecurus myosuroides
# In short: as §1
# sugar beet = experiment: Test B pre/postemergence sugar beet; type: in vivo, Beta vulgaris
# In short: as §1
# cocklebur = experiment: Test B pre/postemergence cocklebur; type: in vivo, Xanthium strumarium
# In short: as §1
# duck salad = experiment: Test B flood test duck salad; type: in vivo, Heteranthera limosa
# In short: (§2)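 Each value is a visual injury score relative to controls, with 10 meaning complete control and 0 no effect. Evaluation took place twelve to sixteen days after the 2-leaf-stage plants were treated and kept in the greenhouse.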
# bamyardgrass = experiment: Test B flood test barnyardgrass; type: in vivo, Echinochloa crus-galli
# In short: as §2
# crabgrass = experiment: Test B pre/postemergence crabgrass; type: in vivo, Digitaria sanguinalis
# In short: as §1
# rice = experiment: Test B flood test rice; type: in vivo, Oryza sativa
# In short: as §2
# smallflower flatsedge = experiment: Test B flood test smallflower flatsedge; type: in vivo, Cyperus difformis
# In short: as §2
# surinam grass = experiment: Test B pre/postemergence surinam grass; type: in vivo, Brachiaria decumbens
# In short: as §1
# rape = experiment: Test B pre/postemergence rape; type: in vivo, Brassica napus
# In short: as §1
# pigweed = experiment: Test B pre/postemergence pigweed; type: in vivo, Amaranthus retroflexus
# In short: as §1
# giant foxtail = experiment: Test B pre/postemergence giant foxtail; type: in vivo, Setaria faberii
# In short: as §1
# corn = experiment: Test B pre/postemergence corn; type: in vivo, Zea mays
# In short: as §1
# morningglory = experiment: Test B pre/postemergence morningglory; type: in vivo, Ipomoea hederacea
# In short: as §1
# wheat = experiment: Test B pre/postemergence wheat; type: in vivo, Triticum aestivum
# In short: as §1
# purple nutsedge = experiment: Test B pre/postemergence purple nutsedge; type: in vivo, Cyperus rotundus
# In short: as §1
# [1] = Postemergence, Rate 125 g/ha, scale 0 to 10, 0 is no effect, 10 is complete control
# [2] = Postemergence, Rate 500 g/ha, scale 0 to 10, 0 is no effect, 10 is complete control
# [3] = Preemergence, Rate 62 g/ha, scale of 0 to 10 where 0 is no effect and 10 is complete control
# [4] = Preemergence, Rate 125 g/ha, scale 0 to 10, 0 is no effect, 10 is complete control
# [5] = Preemergence, Rate 500 g/ha, scale of 0 to 10 where 0 is no effect and 10 is complete control
# [6] = Rate 62 g/ha, Postemergence, scale 0 to 10 (0 no effect, 10 complete control)
# [7] = Postemergence, Rate 250 g/ha, scale 0 to 10
# [8] = Preemergence, Rate 250 g/ha, scale 0 to 10, 0 is no effect, 10 is complete control
# [9] = Rate 62 g/ha, flood test species, Pre-emergence, visual evaluation after twelve to sixteen days
# [10] = Rate 125 g/ha, under heading Pre-emergence, flood test species, visual evaluation after twelve to sixteen days
# [11] = Rate 250 g/ha, Pre-emergence (flood test species), scale 0 to 10, 0 is no effect, 10 is complete control
# [12] = Rate 500 g/ha, Pre-emergence section of Table B, 0 to 10 scale (0 no effect, 10 complete control)
structure (smiles),measurement,setting,value
CC(C)N(C(=O)n1oc(=O)n(CC2=NCCO2)c1=O)c1ccccc1 [Compound 495],Soybean plant response rating,soybean; [1],0
same,"Plant response rating, Soybean",soybean; [2],0
same,"Plant response rating, Soybean",soybean; [3],0
same,Soybean plant response rating,soybean; [4],0
same,Soybean plant response rating,soybean; [5],0
same,Soybean plant response rating,soybean; [6],0
same,Wild oats plant response rating,wild oat; [1],0
same,"Plant response rating, Wild oats",wild oat; [2],0
same,"Plant response rating, Wild oats",wild oat; [3],0
same,Wild oats plant response rating,wild oat; [4],0
same,Wild oats plant response rating,wild oat; [5],0
same,Wild oats plant response rating,wild oat; [6],0
same,Velvetleaf plant response rating,velvetleaf; [1],0
same,"Plant response rating, Velvetleaf",velvetleaf; [2],0
same,"Plant response rating, Velvetleaf",velvetleaf; [3],0
same,Velvetleaf plant response rating,velvetleaf; [4],0
same,Velvetleaf plant response rating,velvetleaf; [5],0
same,Velvetleaf plant response rating,velvetleaf; [6],0
same,Blackgrass plant response rating,blackgrass; [1],0
same,Blackgrass plant response rating,blackgrass; [7],0
same,"Plant response rating, Blackgrass",blackgrass; [2],0
same,"Plant response rating, Blackgrass",blackgrass; [3],0
same,Blackgrass plant response rating,blackgrass; [4],0
same,Blackgrass plant response rating,blackgrass; [8],0
same,Blackgrass plant response rating,blackgrass; [5],0
same,Blackgrass plant response rating,blackgrass; [6],0
same,Sugarbeets plant response rating,sugar beet; [1],0
same,"Plant response rating, Sugarbeets",sugar beet; [2],0
same,"Plant response rating, Sugarbeets",sugar beet; [3],0
same,Sugarbeets plant response rating,sugar beet; [4],0
same,Sugarbeets plant response rating,sugar beet; [5],0
same,Sugarbeets plant response rating,sugar beet; [6],0
same,Cocklebur plant response rating,cocklebur; [1],0
same,Cocklebur plant response rating,cocklebur; [7],0
same,"Plant response rating, Cocklebur",cocklebur; [2],0
same,"Plant response rating, Cocklebur",cocklebur; [3],0
same,Cocklebur plant response rating,cocklebur; [4],0
same,Cocklebur plant response rating,cocklebur; [8],0
same,Cocklebur plant response rating,cocklebur; [5],0
same,Cocklebur plant response rating,cocklebur; [6],0
same,"Plant response rating, Ducksalad (0 to 10 scale, 0 is no effect, 10 is complete control)",duck salad; [9],0
same,"Ducksalad plant response rating (0 to 10 scale, 0 is no effect, 10 is complete control)",duck salad; [10],0
same,Ducksalad plant response rating,duck salad; [11],0
same,Ducksalad plant response rating,duck salad; [12],0
same,"Plant response rating, Barnyardgrass (0 to 10 scale, 0 is no effect, 10 is complete control)",bamyardgrass; [9],0
same,"Barnyardgrass plant response rating (0 to 10 scale, 0 is no effect, 10 is complete control)",bamyardgrass; [10],0
same,Barnyardgrass plant response rating,bamyardgrass; [11],0
same,Barnyardgrass plant response rating,bamyardgrass; [12],0
same,Crabgrass plant response rating,crabgrass; [1],0
same,Crabgrass plant response rating,crabgrass; [7],0
same,"Plant response rating, Crabgrass",crabgrass; [2],0
same,"Plant response rating, Crabgrass",crabgrass; [3],0
same,Crabgrass plant response rating,crabgrass; [4],0
same,Crabgrass plant response rating,crabgrass; [5],0
same,Crabgrass plant response rating,crabgrass; [6],0
same,"Plant response rating, Rice (0 to 10 scale, 0 is no effect, 10 is complete control)",rice; [9],0
same,"Rice plant response rating (0 to 10 scale, 0 is no effect, 10 is complete control)",rice; [10],0
same,Rice plant response rating,rice; [11],0
same,Rice plant response rating,rice; [12],0
same,"Plant response rating, S. Flatsedge (0 to 10 scale, 0 is no effect, 10 is complete control)",smallflower flatsedge; [9],0
same,"S. Flatsedge plant response rating (0 to 10 scale, 0 is no effect, 10 is complete control)",smallflower flatsedge; [10],0
same,S. Flatsedge plant response rating,smallflower flatsedge; [11],0
same,S. Flatsedge plant response rating,smallflower flatsedge; [12],0
same,B. signalgrass plant response rating,surinam grass; [1],0
same,B. signalgrass plant response rating,"surinam grass; Postemergence, Rate 250 g/ha, scale 0 to 10, 0 no effect, 10 complete control",0
same,"Plant response rating, B. signalgrass",surinam grass; [2],0
same,"Plant response rating, B. signalgrass",surinam grass; [3],0
same,B. signalgrass plant response rating,surinam grass; [4],0
same,B. signalgrass plant response rating,surinam grass; [8],0
same,B. signalgrass plant response rating,"surinam grass; Preemergence, Rate 500 g/ha, scale 0 to 10, 0 is no effect, 10 is complete control",0
same,B. signalgrass plant response rating,surinam grass; [6],0
same,Rape plant response rating,rape; [1],0
same,"Plant response rating, Rape",rape; [2],0
same,"Plant response rating, Rape",rape; [3],0
same,Rape plant response rating,rape; [4],0
same,Rape plant response rating,rape; [5],0
same,Rape plant response rating,rape; [6],0
same,Redroot pigweed plant response rating,pigweed; [1],0
same,"Plant response rating, Redroot pigweed",pigweed; [2],0
same,"Plant response rating, Redroot pigweed",pigweed; [3],0
same,Redroot pigweed plant response rating,pigweed; [4],0
same,Redroot pigweed plant response rating,pigweed; [5],0
same,Redroot pigweed plant response rating,pigweed; [6],0
same,Giant foxtail plant response rating,giant foxtail; [1],0
same,"Plant response rating, Giant foxtail",giant foxtail; [2],0
same,"Plant response rating, Giant foxtail",giant foxtail; [3],0
same,Giant foxtail plant response rating,giant foxtail; [4],0
same,Giant foxtail plant response rating,giant foxtail; [5],0
same,Giant foxtail plant response rating,giant foxtail; [6],0
same,Corn plant response rating,corn; [1],0
same,Corn plant response rating,corn; [7],0
same,"Plant response rating, Corn",corn; [2],0
same,"Plant response rating, Corn",corn; [3],0
same,Corn plant response rating,corn; [4],0
same,Corn plant response rating,corn; [5],0
same,Corn plant response rating,corn; [6],0
same,Morningglory plant response rating,morningglory; [1],1
same,"Plant response rating, Morningglory",morningglory; [2],7
same,"Plant response rating, Morningglory",morningglory; [3],0
same,Morningglory plant response rating,morningglory; [4],0
same,Morningglory plant response rating,morningglory; [5],0
same,Morningglory plant response rating,morningglory; [6],1
same,Wheat plant response rating,wheat; [1],0
same,"Plant response rating, Wheat",wheat; [2],0
same,"Plant response rating, Wheat",wheat; [3],0
same,Wheat plant response rating,wheat; [4],0
same,Wheat plant response rating,wheat; [5],0
same,Wheat plant response rating,wheat; [6],0
same,Nutsedge plant response rating,purple nutsedge; [1],0
same,"Plant response rating, Nutsedge",purple nutsedge; [2],0
same,"Plant response rating, Nutsedge",purple nutsedge; [3],0
same,Nutsedge plant response rating,purple nutsedge; [4],0
same,Nutsedge plant response rating,purple nutsedge; [5],0
same,Nutsedge plant response rating,purple nutsedge; [6],0
